Data reported in patent publication US10676431B2, “Phenylpyrrolidinone formyl peptide 2 receptor agonists” (BRISTOL-MYERS SQUIBB COMPANY, priority 2018, dated 2020).

Experiments:
human FPR2 = human FPR2 (Homo sapiens (Human), UniProt P25090); assay: FPR2 cyclic adenosine monophosphate (cAMP) assay; type: cell-based; conditions: CHO cells overexpressing human FPR2; forskolin 5 μM, IBMX 200 μM; inhibition of cAMP production, HTRF; read-out: hFPR2 cAMP2 EC50
Protocol: (§1) FPR2 and FPR1 Cyclic Adenosine Monophosphate (cAMP) Assays. A mixture of forskolin (5 μM final for FPR2 or 10 μM final for FPR1) and IBMX (200 μM final) were added to 384-well Proxiplates (Perkin-Elmer) pre-dotted with test compounds in DMSO (1% final) at final concentrations in the range of 0.020 nM to 100 μM. Chinese Hamster Ovary cells (CHO) overexpressing human FPR1 or human FPR2 receptors were cultured in F-12 (Ham's) medium supplemented with 10% qualified FBS, 250 μg/ml zeocin and 300 μg/ml hygromycin (Life Technologies). Reactions were initiated by adding 2,000 human FPR2 cells per well or 4,000 human FPR1 cells per well in Dulbecco's PBS (with calcium and magnesium) (Life Technologies) supplemented with 0.1% BSA (Perkin-Elmer). The reaction mixtures were incubated for 30 min at room temperature. The level of intracellular cAMP was determined using the HTRF HiRange cAMP assay reagent kit (Cisbio) according to manufacturer's instruction. Solutions of cryptate conjugated anti-cAMP and d2 fluorophore-labelled cAMP were made in a supplied lysis buffer separately. Upon completion of the reaction, the cells were lysed with equal volume of the d2-cAMP solution and anti-cAMP solution. After a 1-h room temperature incubation, time-resolved fluorescence intensity was measured using the Envision (Perkin-Elmer) at 400 nm excitation and dual emission at 590 nm and 665 nm. A calibration curve was constructed with an external cAMP standard at concentrations ranging from 1 μM to 0.1 pM by plotting the fluorescent intensity ratio from 665 nm emission to the intensity from the 590 nm emission against cAMP concentrations. The potency and activity of a compound to inhibit cAMP production was then determined by fitting to a 4-parametric logistic equation from a plot of cAMP level versus compound concentrations.

human FPR1 = human FPR1 (Homo sapiens (Human), UniProt P21462); assay: FPR1 cyclic adenosine monophosphate (cAMP) assay; type: cell-based; conditions: CHO cells overexpressing human FPR1; forskolin 10 μM, IBMX 200 μM; inhibition of cAMP production, HTRF; read-out: hFPR1 cAMP EC50
Protocol: as §1, with “After a 1-h room temperature incubation, time-resolved fluorescence intensity was measured using the Envision (Perkin-Elmer) at 400 nm excitation and dual emission at 590 nm and 665 nm. A calibration curve was constructed with an external cAMP standard at concentrations ranging from 1 μM to 0.1 pM by plotting the fluorescent intensity ratio from 665 nm emission to the intensity from the 590 nm emission against cAMP concentrations.” left out

Sequence of human FPR2 (P25090 whole entry): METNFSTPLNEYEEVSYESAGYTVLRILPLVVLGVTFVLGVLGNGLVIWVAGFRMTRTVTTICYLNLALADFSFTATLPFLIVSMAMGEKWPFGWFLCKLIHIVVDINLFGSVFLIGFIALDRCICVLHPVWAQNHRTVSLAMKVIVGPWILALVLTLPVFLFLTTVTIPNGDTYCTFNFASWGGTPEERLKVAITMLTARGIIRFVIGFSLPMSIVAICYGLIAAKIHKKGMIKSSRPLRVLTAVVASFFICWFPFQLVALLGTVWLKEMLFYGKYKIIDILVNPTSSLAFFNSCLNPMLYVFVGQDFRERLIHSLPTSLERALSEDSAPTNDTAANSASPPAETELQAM
Sequence of human FPR1 (P21462 whole entry): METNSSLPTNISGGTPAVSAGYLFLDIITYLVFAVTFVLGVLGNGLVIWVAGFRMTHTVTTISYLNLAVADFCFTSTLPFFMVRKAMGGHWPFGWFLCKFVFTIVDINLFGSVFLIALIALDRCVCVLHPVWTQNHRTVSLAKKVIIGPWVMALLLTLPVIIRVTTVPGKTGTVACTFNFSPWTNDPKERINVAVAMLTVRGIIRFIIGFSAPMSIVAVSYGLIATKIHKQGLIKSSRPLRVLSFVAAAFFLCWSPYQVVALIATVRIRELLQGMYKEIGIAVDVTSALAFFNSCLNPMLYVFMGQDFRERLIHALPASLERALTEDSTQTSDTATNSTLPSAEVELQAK

| SMILES | EC50 (human FPR2) | EC50 (human FPR1) |
| --- | --- | --- |
| CP(C)(=O)c1ccccc1-c1ccc(N2CC[C@@H](NC(=O)Nc3ccc(Cl)cc3F)C2=O)c(C2CC2)c1F [Example 117] | 13 nM | 84 nM |
| CS(=O)(=O)Nc1ccccc1-c1ccc(N2CC[C@@H](NC(=O)Nc3cnc(C(F)(F)F)cn3)C2=O)c(F)c1F [Example 18] | 20 nM | 2100 nM |
| CCP(=O)(CC)c1ccccc1-c1ccc(N2CC[C@@H](NC(=O)Nc3ncc(Cl)cc3F)C2=O)c(F)c1F [Example 67] | 2.48 nM | 1300 nM |
| O=C(Nc1ccc(Cl)cc1F)N[C@@H]1CCN(c2ccc(-c3ccccc3CO)c(F)c2F)C1=O [Example 2] | 4.2 nM | 360 nM |
| CC1C[C@@H](NC(=O)Nc2ccc(Cl)cc2F)C(=O)N1c1ccc(-c2ccccc2P(C)(C)=O)c(F)c1F (stereo in doubt) [Example 109, 1-(4-Chloro-2-fluorophenyl)-3-(1-(2′-(dimethylphosphoryl)-2,3-difluoro-[1,1′-biphenyl]-4-yl)-5-methyl-2-oxopyrrolidin-3-yl)urea] | 0.44 nM | 390 nM |
| CP(C)(=O)c1ccccc1-c1ccc(N2CC[C@@H](NC(=O)Nc3ccc(C(F)(F)F)cc3F)C2=O)c(F)c1OC(F)(F)F [Example 88] | 5.3 nM | 4.9 nM |
| CP(C)(=O)c1ccccc1-c1ccc(N2C(=O)[C@H](NC(=O)Nc3ccc(Cl)cc3F)C[C@H]2CO)c(F)c1F [Example 112, 1-(4-Chloro-2-fluorophenyl)-3-((3R,5S)-1-(2′-(dimethylphosphoryl)-2,3-difluoro-[1,1′-biphenyl]-4-yl)-5-(hydroxymethyl)-2-oxopyrrolidin-3-yl)urea] | 0.27 nM | 390 nM |
| CP(C)(=O)c1ccccc1-c1ccc(N2CC[C@@H](NC(=O)Nc3ccc(C(F)(F)F)cc3F)C2=O)c(C(F)(F)F)c1F [Example 92] | 8.3 nM | 220 nM |
| COc1ccc(NC(=O)N[C@@H]2CCN(c3ccc(-c4ccccc4P(C)(C)=O)c(F)c3F)C2=O)c(F)c1 [Example 71] | 2.1 nM | 1280 nM |
| Cc1c(N2CC[C@@H](NC(=O)Nc3ccc(Cl)cc3F)C2=O)ccc(-c2ccccc2P(C)(C)=O)c1F [Example 96] | 2.9 nM | 75 nM |
| CS(=O)(=O)c1ccccc1-c1ccc(N2CC[C@@H](NC(=O)Nc3ccc(C(F)(F)F)cc3)C2=O)c(F)c1F [Example 11] | 2.6 nM | 290 nM |
| CP(C)(=O)c1ccccc1-c1ccc(N2C(=O)[C@@H](NC(=O)Nc3ccc(Cl)cc3F)C[C@H]2CO)c(F)c1F [Example 111] | 30 nM | 540 nM |
| CS(=O)(=O)c1ccccc1-c1ccc(N2CC[C@@H](NC(=O)Nc3ccc(C(F)(F)F)cc3F)C2=O)c(F)c1F [Example 29] | 7 nM | 190 nM |
| CC1C[C@@H](NC(=O)Nc2ccc(C(F)(F)F)cc2F)C(=O)N1c1ccc(-c2ccccc2P(C)(C)=O)c(F)c1F (stereo partly drawn) [Example 115] | 1.2 nM | 55 nM |
| CC(C)c1cc(-c2ccccc2NS(C)(=O)=O)ccc1N1CC[C@@H](NC(=O)Nc2ccc(C(F)(F)F)cc2F)C1=O [Example 37] | 1.4 nM | 170 nM |
| O=C(Nc1ccc(Cl)cc1)N[C@@H]1CCN(c2ccc(-c3cccnc3F)c(F)c2F)C1=O [Example 19] | 22 nM | 78 nM |
| CP(C)(=O)c1ccccc1-c1ccc(N2CC[C@@H](NC(=O)Nc3ccc(Cl)cc3F)C2=O)c(F)c1C(F)F [Example 95] | 32 nM | 200 nM |
| CC1C[C@@H](NC(=O)Nc2ccc(C(F)(F)F)cc2F)C(=O)N1c1ccc(-c2cccnc2P(C)(C)=O)c(F)c1F (stereo partly drawn) [Example 120] | 0.78 nM | 160 nM |
| CS(=N)(=O)c1ccccc1-c1ccc(N2CC[C@@H](NC(=O)Nc3ccc(Cl)cc3F)C2=O)c(F)c1F (stereo partly drawn) [Example 58] | 6.3 nM | 610 nM |
| COc1ccc(NC(=O)N[C@@H]2CCN(c3ccc(-c4ccccc4P(C)(C)=O)c(F)c3F)C2=O)cc1 [Example 65] | 1.2 nM | 2600 nM |
| CP(C)(=O)c1ccccc1-c1ccc(N2CC[C@@H](NC(=O)Nc3ncc(Cl)cc3F)C2=O)c(F)c1F [Example 56] | 7.5 nM | 7700 nM |

| SMILES | EC50 (human FPR2) | EC50 (human FPR1) |
| --- | --- | --- |
| CC1(C)CN(c2ccc(-c3cccnc3P(C)(C)=O)c(F)c2F)C(=O)[C@@H]1NC(=O)Nc1ccc(Cl)cc1F [Example 113] | 0.39 nM | 590 nM |
| O=C(Nc1ccc(Cl)cc1F)N[C@@H]1CCN(c2ccc(-c3ccccc3F)c(F)c2F)C1=O [Example 21] | 31 nM | 390 nM |
| CS(=N)(=O)c1ccccc1-c1ccc(N2CC[C@@H](NC(=O)Nc3ccc(C(F)(F)F)cc3F)C2=O)c(F)c1F (stereo partly drawn) [Example 66] | 4.9 nM | 580 nM |
| CP(C)(=O)c1ccccc1-c1ccc(N2CC(CO)[C@@H](NC(=O)Nc3ccc(Cl)cc3F)C2=O)c(F)c1F (stereo partly drawn) [Example 125] | 0.99 nM | 180 nM |
| CS(=O)(=O)Nc1ccccc1-c1ccc(N2CC[C@@H](NC(=O)Nc3ccc(Cl)cn3)C2=O)c(F)c1F [Example 17] | 16 nM | 4100 nM |
| CS(=O)(=O)c1ccccc1-c1ccc(N2CC[C@@H](NC(=O)Nc3ccc(Cl)cc3)C2=O)c(F)c1F [Example 10] | 2.2 nM | 130 nM |
| CP(C)(=O)c1c(F)cccc1-c1ccc(N2CC[C@@H](NC(=O)Nc3ccc(C(F)(F)F)cc3F)C2=O)c(F)c1Cl [Example 86] | 0.85 nM | 21 nM |
| CC(=O)NC(C)c1cccc(-c2ccc(N3CC[C@@H](NC(=O)Nc4ccc(Cl)cc4F)C3=O)c(F)c2F)c1 (stereo partly drawn) [Example 44] | 43 nM | 450 nM |
| CC1C[C@@H](NC(=O)Nc2ccc(Cl)cc2F)C(=O)N1c1ccc(-c2cccnc2P(C)(C)=O)c(F)c1F (stereo partly drawn) [Example 122] | 0.81 nM | 610 nM |
| CP(C)(=O)c1ccccc1-c1ccc(N2CC[C@@H](NC(=O)Nc3ccc(C(F)(F)F)cc3F)C2=O)c(F)c1C(F)(F)F [Example 94] | 1.8 nM | 12 nM |
| COc1ncccc1-c1ccc(N2CC[C@@H](NC(=O)Nc3ccc(Cl)cc3F)C2=O)c(F)c1F [Example 118] | 17 nM | 320 nM |
| CP(C)(=O)c1ccccc1-c1ccc(N2CC3(CC3)[C@@H](NC(=O)Nc3ccc(Cl)cc3F)C2=O)c(F)c1F [Example 132] | 0.48 nM | 28 nM |
| CP(C)(=O)c1ccccc1-c1ccc(N2CC[C@@H](NC(=O)Nc3ccc(Cl)cn3)C2=O)c(F)c1F [Example 49] | 5.6 nM | 3400 nM |
| O=C(Nc1ccc(Cl)cc1)N[C@@H]1CCN(c2ccc(-c3ccccc3CO)c(F)c2F)C1=O [Example 3] | 1.1 nM | 220 nM |
| CS(=O)(=O)Nc1ccccc1-c1ccc(N2CC[C@@H](NC(=O)Nc3ccc(C(F)(F)F)cc3F)C2=O)c(F)c1F [Example 33] | 1.1 nM | 470 nM |
| CC1C[C@@H](NC(=O)Nc2ccc(Cl)cc2F)C(=O)N1c1ccc(-c2cccnc2P(C)(C)=O)c(F)c1F (stereo partly drawn) [Example 121] | 0.3 nM | 5 nM |
| COP(=O)(OC)c1ccccc1-c1ccc(N2CC[C@@H](NC(=O)Nc3ccc(C(F)(F)F)cc3F)C2=O)c(F)c1F [Example 108] | 1.4 nM |  |
| CCOP(C)(=O)c1ccccc1-c1ccc(N2CC[C@@H](NC(=O)Nc3ccc(C(F)(F)F)cc3F)C2=O)c(F)c1F (stereo partly drawn) [Example 105] | 6.9 nM |  |
| CCOP(C)(=O)c1ccccc1-c1ccc(N2CC[C@@H](NC(=O)Nc3ccc(Cl)cc3F)C2=O)c(F)c1F (stereo partly drawn) [Example 101] | 0.66 nM |  |
| CCOP(C)(=O)c1ccccc1-c1ccc(N2CC[C@@H](NC(=O)Nc3ccc(C(F)(F)F)cc3F)C2=O)c(F)c1F (stereo partly drawn) [Example 104] | 5.2 nM |  |
